Data: patent US9604931B2, “Nuclear receptor binding agents” (GTx, Inc., priority 2007, dated 2017)
“Also recorded” adds a separate entry of the source.

The molecules below were run against ERα ligand binding domain (Homo sapiens, UniProt P03372) (assay: Competitive [3H]-estradiol binding assay, ER-α (Example 21)). Conditions: 100 nM of compound; read-out: Percent Inhibition of [3H]-Estradiol Binding to ER-α.
Chain of ERα ligand binding domain (P03372 whole entry, looked up, the tested form may be a part): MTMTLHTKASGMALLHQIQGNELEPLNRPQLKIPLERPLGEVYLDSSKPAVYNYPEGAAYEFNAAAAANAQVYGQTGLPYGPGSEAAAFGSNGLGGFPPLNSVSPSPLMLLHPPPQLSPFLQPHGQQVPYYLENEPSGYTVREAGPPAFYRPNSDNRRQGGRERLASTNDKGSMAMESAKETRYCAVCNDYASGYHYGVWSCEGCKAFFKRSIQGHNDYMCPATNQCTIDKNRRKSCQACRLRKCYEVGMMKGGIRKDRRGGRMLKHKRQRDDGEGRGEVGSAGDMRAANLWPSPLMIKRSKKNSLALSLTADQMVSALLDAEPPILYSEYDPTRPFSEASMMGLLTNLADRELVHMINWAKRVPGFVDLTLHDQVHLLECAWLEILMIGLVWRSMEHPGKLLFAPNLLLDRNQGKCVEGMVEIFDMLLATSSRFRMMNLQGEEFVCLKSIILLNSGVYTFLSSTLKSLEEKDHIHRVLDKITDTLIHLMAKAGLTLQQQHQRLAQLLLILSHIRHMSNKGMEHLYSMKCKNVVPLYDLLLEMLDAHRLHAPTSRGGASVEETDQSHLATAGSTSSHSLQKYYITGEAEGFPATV
Description: (§1) ER binding affinity was determined via one of the following methods:
(§2) Briefly, the incubation mixture was filtered through a high affinity protein binding filter, and washed several times to remove any unbound radioactivity. The filter plate was air dried and sealed on the bottom.
(§3) Nonspecific binding was subtracted from total binding to yield specific binding.
With `O=c1c2ccc(O)cc2c(Cl)cn1-c1ccc(O)cc1` [12f, 4-chloro-6-hydroxy-2-(4-hydroxyphenyl)-isoquinolin-1(2H)-one] the inhibition at 0.1 µM was 0%. In the case of `O=c1c2ccc(O)cc2c(Cl)cn1-c1ccc(O)c(F)c1` [12g, 4-chloro-2-(3-fluoro-4-hydroxyphenyl)-6-hydroxy-isoquinolin-1(2H)-one], the inhibition at 0.1 µM is reported as 0%. With `Oc1ccc(-n2ccc3cc(O)cc(O)c3c2=S)cc1` [12p, 2-(4-hydroxyphenyl)-6,8-dihydroxy-isoquinoline-1(2H)-thione] the inhibition at 0.1 µM was 25.8%. In the case of `Oc1ccc(-n2cc(Br)c3cc(O)ccc3c2=S)cc1` [12r, 4-bromo-6-hydroxy-2-(4-hydroxyphenyl)isoquinoline-1(2H)-thione], the inhibition at 0.1 µM is reported as 35.7%. Molecule `O=c1c2ccc(O)cc2c(I)cn1-c1ccc(O)cc1` [12h, 6-hydroxy-2-(4-hydroxyphenyl)-4-iodoisoquinolin-1(2H)-one] has an inhibition at 0.1 µM of 7.7%. Work on `O=c1c2c(O)cc(O)cc2ccn1-c1ccc(O)c(F)c1` [12s, 2-(3-fluoro-4-hydroxyphenyl)-6,8-dihydroxyisoquinolin-1(2H)-one] yielded an inhibition at 0.1 µM of 4.5%. `O=c1c2c(O)cc(O)cc2ccn1-c1ccc(O)cc1` [12l, 6,8-dihydroxy-2-(4-hydroxyphenyl)-isoquinolin-1(2H)-one] was tested, and the inhibition at 0.1 µM was 2.5%. In the case of `O=c1c2ccc(O)cc2c(Br)cn1-c1ccc(O)c(F)c1` [12d, 4-bromo-2-(3-fluoro-4-hydroxyphenyl)-6-hydroxy-isoquinolin-1(2H)-one], the inhibition at 0.1 µM is reported as 0%. `O=c1c2c(O)cc(O)cc2c(Br)cn1-c1ccc(O)c(F)c1` [12z, 4-bromo-6,8-dihydroxy-2-(3-fluoro-4-hydroxyphenyl)isoquinolin-1(2H)-one] showed an inhibition at 0.1 µM of 52.8%. Work on `O=c1c2c(O)cc(O)c(Br)c2ccn1-c1ccc(O)cc1` [12m, 5-bromo-6,8-dihydroxy-2-(4-hydroxyphenyl)isoquinolin-1(2H)-one] yielded an inhibition at 0.1 µM of 5.2%.

What follows are molecules tested against ERβ ligand binding domain (Homo sapiens, UniProt Q92731) (assay: Competitive [3H]-estradiol binding assay, ER-β (Example 21)). Conditions: not given.
Chain of ERβ ligand binding domain (Q92731 whole entry, looked up, the tested form may be a part): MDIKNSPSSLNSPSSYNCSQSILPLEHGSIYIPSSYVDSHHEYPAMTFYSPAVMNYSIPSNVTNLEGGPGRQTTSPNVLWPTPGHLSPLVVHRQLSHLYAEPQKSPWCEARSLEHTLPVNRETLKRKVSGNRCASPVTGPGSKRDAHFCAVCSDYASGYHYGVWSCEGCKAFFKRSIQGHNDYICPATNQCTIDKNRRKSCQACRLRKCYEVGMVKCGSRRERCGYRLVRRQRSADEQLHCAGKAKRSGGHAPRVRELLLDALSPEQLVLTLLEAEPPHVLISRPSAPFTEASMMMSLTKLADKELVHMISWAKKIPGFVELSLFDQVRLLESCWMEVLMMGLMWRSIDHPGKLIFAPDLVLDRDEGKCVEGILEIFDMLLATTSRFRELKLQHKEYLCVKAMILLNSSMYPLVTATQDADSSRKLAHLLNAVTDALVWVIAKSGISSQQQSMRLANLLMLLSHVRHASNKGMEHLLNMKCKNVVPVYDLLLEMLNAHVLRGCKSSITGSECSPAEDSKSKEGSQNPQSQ
Description: as §1, §2, §3
With `O=c1c2ccc(O)cc2c(Cl)cn1-c1ccc(O)cc1` [12f, 4-chloro-6-hydroxy-2-(4-hydroxyphenyl)-isoquinolin-1(2H)-one] the “Ki Ratio (ER-α/ER-β)” value was 61. For `Oc1ccc(-n2ccc3cc(O)cc(O)c3c2=S)cc1` [12p, 2-(4-hydroxyphenyl)-6,8-dihydroxy-isoquinoline-1(2H)-thione], the “Ki Ratio (ER-α/ER-β)” value was 8. In the case of `O=c1c2ccc(O)cc2c(I)cn1-c1ccc(O)cc1` [12h, 6-hydroxy-2-(4-hydroxyphenyl)-4-iodoisoquinolin-1(2H)-one], the “Ki Ratio (ER-α/ER-β)” value is reported as 22. `O=c1c2c(O)cc(O)cc2ccn1-c1ccc(O)c(F)c1` [12s, 2-(3-fluoro-4-hydroxyphenyl)-6,8-dihydroxyisoquinolin-1(2H)-one] was tested, and the “Ki Ratio (ER-α/ER-β)” value was 25. In the case of `O=c1c2c(O)cc(O)cc2c(Br)cn1-c1ccc(O)c(F)c1` [12z, 4-bromo-6,8-dihydroxy-2-(3-fluoro-4-hydroxyphenyl)isoquinolin-1(2H)-one], the “Ki Ratio (ER-α/ER-β)” value is reported as 12.

Same assay, conditions: read-out: ER-β binding constant (Ki)
Work on `O=c1c2c(O)cc(O)cc2c(Br)cn1-c1ccc(O)c(F)c1` [12z, 4-bromo-6,8-dihydroxy-2-(3-fluoro-4-hydroxyphenyl)isoquinolin-1(2H)-one] yielded a Ki of 0.003 µM.

Same assay, conditions: read-out: Percent Inhibition of [3H]-Estradiol Binding to ER-β
`O=c1c2ccc(O)cc2c(Cl)cn1-c1ccc(O)cc1` [12f, 4-chloro-6-hydroxy-2-(4-hydroxyphenyl)-isoquinolin-1(2H)-one] gave an inhibition at 0.1 µM of 47.5%. `O=c1c2ccc(O)cc2c(Cl)cn1-c1ccc(O)c(F)c1` [12g, 4-chloro-2-(3-fluoro-4-hydroxyphenyl)-6-hydroxy-isoquinolin-1(2H)-one] gave an inhibition at 0.1 µM of 29.4%. In the case of `Oc1ccc(-n2ccc3cc(O)cc(O)c3c2=S)cc1` [12p, 2-(4-hydroxyphenyl)-6,8-dihydroxy-isoquinoline-1(2H)-thione], the inhibition at 0.1 µM is reported as 80.7%. For `Oc1ccc(-n2cc(Br)c3cc(O)ccc3c2=S)cc1` [12r, 4-bromo-6-hydroxy-2-(4-hydroxyphenyl)isoquinoline-1(2H)-thione], the inhibition at 0.1 µM was 75.5%. With `O=c1c2ccc(O)cc2c(I)cn1-c1ccc(O)cc1` [12h, 6-hydroxy-2-(4-hydroxyphenyl)-4-iodoisoquinolin-1(2H)-one] the inhibition at 0.1 µM was 40.5%. Molecule `O=c1c2c(O)cc(O)cc2ccn1-c1ccc(O)c(F)c1` [12s, 2-(3-fluoro-4-hydroxyphenyl)-6,8-dihydroxyisoquinolin-1(2H)-one] has an inhibition at 0.1 µM of 52.8%. With `O=c1c2c(O)cc(O)cc2ccn1-c1ccc(O)cc1` [12l, 6,8-dihydroxy-2-(4-hydroxyphenyl)-isoquinolin-1(2H)-one] the inhibition at 0.1 µM was 34.4%. `O=c1c2ccc(O)cc2c(Br)cn1-c1ccc(O)c(F)c1` [12d, 4-bromo-2-(3-fluoro-4-hydroxyphenyl)-6-hydroxy-isoquinolin-1(2H)-one] was tested, and the inhibition at 0.1 µM was 38.7%. In the case of `O=c1c2c(O)cc(O)cc2c(Br)cn1-c1ccc(O)c(F)c1` [12z, 4-bromo-6,8-dihydroxy-2-(3-fluoro-4-hydroxyphenyl)isoquinolin-1(2H)-one], the inhibition at 0.1 µM is reported as 95.3%. `O=c1c2c(O)cc(O)c(Br)c2ccn1-c1ccc(O)cc1` [12m, 5-bromo-6,8-dihydroxy-2-(4-hydroxyphenyl)isoquinolin-1(2H)-one] showed an inhibition at 0.1 µM of 0%.

Each molecule was assayed against ER-α (Rattus norvegicus (Rat), UniProt P06211) (assay: not given). Conditions: 100 nM compound compared to 1 nM estradiol.
Format: cell-based
Description: COS or 293 cells were plated in DME without phenol red+10% cs FBS at 90,000 cells per well in 24 well plates, and were transfected with 0.25 μg of the vector “ERE-LUC”, where a firefly luciferase gene was driven by two estrogen responsive elements and 0.02 μg of the control CMV-LUC, Renilla where a luciferase gene was driven by a CMV promoter. […] All the receptors were cloned from rat tissue into the PCR3.1 vector backbone. Twenty four hours post transfection, cells were treated with compounds of this invention, estrogen, DHT, and other NRBAs or combinations thereof. Cells were harvested 48 hrs after transfection, and assayed for firefly and Renilla luciferase activity.
With `Oc1ccc(-n2ccc3cc(O)cc(O)c3c2=S)cc1` [12p, 2-(4-hydroxyphenyl)-6,8-dihydroxy-isoquinoline-1(2H)-thione] the “Estradiol activity at 100 nM of NRBA, ER-α” value was 45%. With `O=c1c2c(O)cc(O)cc2ccn1-c1ccc(O)c(F)c1` [12s, 2-(3-fluoro-4-hydroxyphenyl)-6,8-dihydroxyisoquinolin-1(2H)-one] the “Estradiol activity at 100 nM of NRBA, ER-α” value was 29%.

What follows are molecules tested against ER-β (Rattus norvegicus (Rat), UniProt Q62986) (assay: ER-β transactivation (ERE-LUC) in COS or 293 cells). Conditions: not given.
Chain of ER-β (Q62986 whole entry): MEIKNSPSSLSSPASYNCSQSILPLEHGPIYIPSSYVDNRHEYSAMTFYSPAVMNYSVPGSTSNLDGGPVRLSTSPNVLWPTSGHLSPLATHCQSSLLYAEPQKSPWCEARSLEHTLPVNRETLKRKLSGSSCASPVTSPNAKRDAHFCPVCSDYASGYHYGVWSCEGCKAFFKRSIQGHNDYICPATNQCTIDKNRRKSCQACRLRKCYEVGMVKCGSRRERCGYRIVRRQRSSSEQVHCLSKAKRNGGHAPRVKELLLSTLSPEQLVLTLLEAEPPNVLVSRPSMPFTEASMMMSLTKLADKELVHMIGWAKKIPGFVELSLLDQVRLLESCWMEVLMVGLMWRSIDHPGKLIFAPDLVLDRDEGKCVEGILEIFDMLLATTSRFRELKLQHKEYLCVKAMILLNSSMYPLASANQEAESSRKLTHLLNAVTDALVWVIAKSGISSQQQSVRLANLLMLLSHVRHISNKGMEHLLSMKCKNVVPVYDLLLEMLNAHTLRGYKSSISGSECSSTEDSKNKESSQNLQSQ
Format: cell-based
`O=c1c2ccc(O)cc2c(Cl)cn1-c1ccc(O)cc1` [12f, 4-chloro-6-hydroxy-2-(4-hydroxyphenyl)-isoquinolin-1(2H)-one] was tested, and the ER-β agonist activity was “ER-β agonist activity”. In the case of `Oc1ccc(-n2ccc3cc(O)cc(O)c3c2=S)cc1` [12p, 2-(4-hydroxyphenyl)-6,8-dihydroxy-isoquinoline-1(2H)-thione], the ER-β agonist activity is reported as “ER-β agonists; also recorded: ER-β agonist activity”. In the case of `O=c1c2ccc(O)cc2c(I)cn1-c1ccc(O)cc1` [12h, 6-hydroxy-2-(4-hydroxyphenyl)-4-iodoisoquinolin-1(2H)-one], the ER-β agonist activity is reported as “ER-β agonist activity”. `O=c1c2c(O)cc(O)cc2ccn1-c1ccc(O)c(F)c1` [12s, 2-(3-fluoro-4-hydroxyphenyl)-6,8-dihydroxyisoquinolin-1(2H)-one] was tested, and the ER-β agonist activity was “ER-β agonist activity”. `O=c1c2c(O)cc(O)cc2c(Br)cn1-c1ccc(O)c(F)c1` [12z, 4-bromo-6,8-dihydroxy-2-(3-fluoro-4-hydroxyphenyl)isoquinolin-1(2H)-one] was tested, and the ER-β agonist activity was “ER-β agonist activity”.

Same assay, conditions: HEK293, 48 h, read-out: Estradiol activity at 100 nM of NRBA, ER-β
Work on `Oc1ccc(-n2ccc3cc(O)cc(O)c3c2=S)cc1` [12p, 2-(4-hydroxyphenyl)-6,8-dihydroxy-isoquinoline-1(2H)-thione] yielded an activation at 0.1 µM of 85%. In the case of `O=c1c2c(O)cc(O)cc2ccn1-c1ccc(O)c(F)c1` [12s, 2-(3-fluoro-4-hydroxyphenyl)-6,8-dihydroxyisoquinolin-1(2H)-one], the activation at 0.1 µM is reported as 76.9%.

Each molecule was assayed on rat aorta rings (assay: Rat aortic ring relaxation). Conditions: 10^-6 PE constriction.
Description: Experimental protocol. Equipment used in these studies included a 4-tissue bath system with reservoirs and circulators (RadnotiGlass Technology, Monrovia, Calif.), DSI/Ponemah tissue force analyzer 7700 (Valley View, Ohio), and iWorx/CB Sciencesforce transducers FT-302. The 250 g rats were anesthetized with isoflurane to produce deep anesthesia. The chest of the rat was opened, and about 3 cm length of aorta was removed and placed in a Petri dish containing room temperature Krebs salt solution (KSS, in mM: 120 NaCl, 5 KCl, 1.2 MgSO4.7H20, 2.5 CaCl2.2H2O, 1 KH2PO4, 25 NaHCO3, and 11 glucose). Fat and connective tissue were removed from the aorta taking care not to stretch the vessel. The aorta was then divided into 3-mm-wide rings. Triangular wire holders were inserted through the lumen of the vessel and connected to the force transducer and tissue holder rod in the vessel bath.
Analog-to-digital conversions of force waveforms were accomplished with a DSI/Ponemah tissue force analyzer 7700. The converted data were automatically analyzed with Ponemah Physiology-Smooth Muscle software. All data are summarized as means±standard error. Differences between means were assessed by a conventional ANOVA. This was followed by Student's test. P<0.05 was considered to be statistically significant.
The tension on the rings was adjusted to 1.0 g passive force using the tension adjustment dial for each transducer and allowed to equilibrate for 60 min in the bath with a 95% O2-5% CO2 gas mixture. The rings were washed with fresh buffer every 20 min. Passive force was readjusted to 1.0 g as needed during this period. When rings were stable at 1.0 g of passive force, the baseline was calculated.
Phenylephrine (PE) at a final concentration of […] was added to the bath to contract the ring, and force was allowed to stabilize for 10 min. Then acetylcholine (ACH) at a final concentration of 10^−5 M was added to the precontracted rings to test for endothelial integrity […]. After the initial test for vessel viability and endothelial integrity, the rings were washed three times for 10 min with buffer, allowing it to equilibrate to active force stabilized at 1 g.
Cumulative concentration-response curves to NRBAs were created by increasing the NRBAs concentration in the tissue bath by successive addition of appropriate dilutions of stock solutions to achieve final bath concentrations of 300 nM to 0.15 mM NRBAs.
Table 10 summarizes EC50 values and maximal % decrease of the 10^−6 PE constriction of the aortic ring for individual NRBAs tested
For `O=c1c2c(O)cc(O)cc2c(Br)cn1-c1ccc(O)c(F)c1` [12z, 4-bromo-6,8-dihydroxy-2-(3-fluoro-4-hydroxyphenyl)isoquinolin-1(2H)-one], the “Mean of Maximal % Decrease of the PE constriction of the aortic ring” value was 83.58%.

Same assay, conditions: Rattus norvegicus; 10^-6 PE constriction
`O=c1c2c(O)cc(O)cc2c(Br)cn1-c1ccc(O)c(F)c1` [12z, 4-bromo-6,8-dihydroxy-2-(3-fluoro-4-hydroxyphenyl)isoquinolin-1(2H)-one] was tested, and the EC50 was 15.1 µM.

Each molecule was assayed on Rat Aortic Smooth Muscle Cells (RASMC) (assay: RASMC cell proliferation assay (WST-1)). Conditions: Rattus norvegicus; inhibitory effect sigmoid Emax model; read-out: EC50 for inhibition of RASMC proliferation.
Format: cell-based
Description: EC50 values were calculated using WinNonLin 5.0.1 using the inhibitory effect sigmoid Emax model.
`O=c1c2c(O)cc(O)cc2c(Br)cn1-c1ccc(O)c(F)c1` [12z, 4-bromo-6,8-dihydroxy-2-(3-fluoro-4-hydroxyphenyl)isoquinolin-1(2H)-one] showed an EC50 of 25.1 µM.

These molecules were tested on ARPE-19 cells (assay: Fluorescent detection of intracellular ROS). Conditions: 150 μM tBH.
Format: cell-based, Human
Description: Cells were allowed to adhere overnight. […] Removed and washed cells once with HBSS. […] Each drug concentration was done in triplicates.
`O=c1c2c(O)cc(O)cc2c(Br)cn1-c1ccc(O)c(F)c1` [12z, 4-bromo-6,8-dihydroxy-2-(3-fluoro-4-hydroxyphenyl)isoquinolin-1(2H)-one] was tested, and the “Prevention of ROS formation / oxidative stress” value was “able to prevent ROS formation as well as estradiol; also recorded: protected ARPE-19 cells from oxidative damage”.
